Several values for one entry are separate records, joined by “and”; a condition that tells them apart may be missing. Identical values can stand only once. Entries after “also recorded” stand apart in the source; their conditions may differ. Like-named read-outs stand apart in the source and are kept apart here. Marks after values point to notes of the source that are not given here.
How the values were obtained:
[1] = tested on: Hartley guinea pigs
[2] = tested on: Kunming mice; test: Acetic acid-induced writhing test in mice; assay type: in vivo
[3] = tested on: mice; test: Analgesic time-effect relation in acetic acid-induced writhing test in mice; assay type: in vivo; conditions: for IR, inhibition rate / AWI, average writhing incidence: aspirin ig
[4] = tested on: Kunming mice; conditions: mouse, in vivo
[5] = tested on: Salmonella TA102
[6] = tested on: Salmonella TA98; conditions: Dexon 50.0, −S9; control 36 ± 5
[7] = tested on: Salmonella TA97; conditions: Dexon 50.0, −S9; control 138 ± 18
[8] = tested on: Salmonella TA100; conditions: Dexon 50.0, −S9; control 130 ± 11
[9] = tested on: Kunming mice; conditions: mouse, in vivo; remark: listed apart in the source
[10] = tested on: Kunming mice; conditions: mouse, in vivo; remark: listed apart in the source
[11] = tested on: Chinese hamster lung (CHL) cells; assay type: cell-based; conditions: for Chromosomal aberration rate (%): MMC 0.25 μg/mL, no metabolic activation, P<0.01
Protocol: The Chinese hamster lung (CHL) cells were exposed to tetrodotoxin at the concentrations of 5.0, 10.0, and 20.0 μg/mL for 24 or 48 hours in the absence of Sg activation and for 6 hours in the presence of S9 activation.

[12] = tested on: rats; conditions: rat, in vivo
[13] = tested on: monkeys; conditions: rhesus monkey, in vivo
[14] = tested on: Wistar rats; test: Formalin induced inflammation test in rats; conditions: rat, in vivo
[15] = tested on: rats; test: Tail-flick test in rats; conditions: rat, in vivo
[16] = tested on: mice; conditions: mouse, in vivo
[17] = tested on: monkeys; conditions: rhesus monkey, in vivo; remark: listed apart in the source
[18] = tested on: rabbits' quadriceps femoris muscles
[19] = tested on: anesthetized dogs; conditions: dog, in vivo
[20] = target: hPN3 (Homo sapiens, UniProt Q9Y5Y9); conditions: cited from earlier work
Chain of hPN3 (Q9Y5Y9 whole entry, looked up): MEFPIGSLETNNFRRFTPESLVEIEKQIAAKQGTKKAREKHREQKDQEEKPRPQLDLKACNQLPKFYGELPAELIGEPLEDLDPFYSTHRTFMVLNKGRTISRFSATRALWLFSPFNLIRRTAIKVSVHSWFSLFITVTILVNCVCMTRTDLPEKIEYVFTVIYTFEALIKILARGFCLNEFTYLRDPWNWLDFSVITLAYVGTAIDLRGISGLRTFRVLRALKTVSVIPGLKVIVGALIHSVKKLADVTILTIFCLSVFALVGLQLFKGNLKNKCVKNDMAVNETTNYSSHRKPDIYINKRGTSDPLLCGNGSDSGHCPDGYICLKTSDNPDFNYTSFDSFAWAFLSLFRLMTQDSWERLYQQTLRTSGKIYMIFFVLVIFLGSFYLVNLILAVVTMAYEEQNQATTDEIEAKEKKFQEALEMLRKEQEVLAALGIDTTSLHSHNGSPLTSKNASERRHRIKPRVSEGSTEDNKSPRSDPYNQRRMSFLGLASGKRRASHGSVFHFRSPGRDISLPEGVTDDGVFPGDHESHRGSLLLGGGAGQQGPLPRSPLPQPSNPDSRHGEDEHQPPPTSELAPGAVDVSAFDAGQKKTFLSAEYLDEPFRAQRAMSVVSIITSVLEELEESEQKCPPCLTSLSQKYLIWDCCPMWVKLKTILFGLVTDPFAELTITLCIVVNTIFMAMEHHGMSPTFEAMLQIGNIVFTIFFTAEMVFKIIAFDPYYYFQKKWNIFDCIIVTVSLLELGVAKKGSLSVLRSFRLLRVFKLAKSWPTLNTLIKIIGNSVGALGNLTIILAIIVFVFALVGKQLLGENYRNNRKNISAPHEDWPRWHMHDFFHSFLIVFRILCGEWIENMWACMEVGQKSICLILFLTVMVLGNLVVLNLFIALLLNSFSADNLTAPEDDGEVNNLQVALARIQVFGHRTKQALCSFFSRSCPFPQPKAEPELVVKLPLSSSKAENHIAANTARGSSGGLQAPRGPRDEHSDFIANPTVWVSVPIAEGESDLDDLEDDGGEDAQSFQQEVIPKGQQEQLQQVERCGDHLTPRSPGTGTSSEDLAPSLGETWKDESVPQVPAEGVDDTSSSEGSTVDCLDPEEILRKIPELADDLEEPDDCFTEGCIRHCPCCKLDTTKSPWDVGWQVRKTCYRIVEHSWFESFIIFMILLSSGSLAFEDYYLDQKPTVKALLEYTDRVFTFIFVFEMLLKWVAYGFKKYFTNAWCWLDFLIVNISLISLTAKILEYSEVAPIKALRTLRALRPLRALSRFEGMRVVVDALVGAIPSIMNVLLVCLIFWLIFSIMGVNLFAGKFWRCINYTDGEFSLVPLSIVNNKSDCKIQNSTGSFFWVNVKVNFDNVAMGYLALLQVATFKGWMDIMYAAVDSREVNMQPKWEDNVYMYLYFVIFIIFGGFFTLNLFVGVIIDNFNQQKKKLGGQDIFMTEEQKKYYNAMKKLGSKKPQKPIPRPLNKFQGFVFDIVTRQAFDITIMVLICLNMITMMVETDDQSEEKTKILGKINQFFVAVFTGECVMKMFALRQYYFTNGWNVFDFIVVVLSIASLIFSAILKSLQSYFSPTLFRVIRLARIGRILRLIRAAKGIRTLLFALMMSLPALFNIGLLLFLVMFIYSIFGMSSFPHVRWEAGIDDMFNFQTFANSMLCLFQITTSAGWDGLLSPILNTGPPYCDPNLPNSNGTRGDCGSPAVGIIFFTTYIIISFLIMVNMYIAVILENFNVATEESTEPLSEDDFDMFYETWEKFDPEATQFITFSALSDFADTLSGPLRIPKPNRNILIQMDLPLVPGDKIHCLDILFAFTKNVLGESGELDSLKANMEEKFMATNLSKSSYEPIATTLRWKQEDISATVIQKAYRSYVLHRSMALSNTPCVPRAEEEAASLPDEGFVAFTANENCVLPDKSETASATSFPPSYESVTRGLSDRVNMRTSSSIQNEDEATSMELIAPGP

[21] = tested on: late term cancer patients; conditions: human, in vivo
[22] = tested on: Shanghai mice; conditions: mouse, in vivo
[23] = tested on: mouse's marrow cells; conditions: in vivo
[24] = target: TTX-resistant sodium channel (TTX-R) (Rattus norvegicus, UniProt Q62968); conditions: cited from earlier work
Chain of TTX-resistant sodium channel (TTX-R) (Q62968 whole entry, looked up): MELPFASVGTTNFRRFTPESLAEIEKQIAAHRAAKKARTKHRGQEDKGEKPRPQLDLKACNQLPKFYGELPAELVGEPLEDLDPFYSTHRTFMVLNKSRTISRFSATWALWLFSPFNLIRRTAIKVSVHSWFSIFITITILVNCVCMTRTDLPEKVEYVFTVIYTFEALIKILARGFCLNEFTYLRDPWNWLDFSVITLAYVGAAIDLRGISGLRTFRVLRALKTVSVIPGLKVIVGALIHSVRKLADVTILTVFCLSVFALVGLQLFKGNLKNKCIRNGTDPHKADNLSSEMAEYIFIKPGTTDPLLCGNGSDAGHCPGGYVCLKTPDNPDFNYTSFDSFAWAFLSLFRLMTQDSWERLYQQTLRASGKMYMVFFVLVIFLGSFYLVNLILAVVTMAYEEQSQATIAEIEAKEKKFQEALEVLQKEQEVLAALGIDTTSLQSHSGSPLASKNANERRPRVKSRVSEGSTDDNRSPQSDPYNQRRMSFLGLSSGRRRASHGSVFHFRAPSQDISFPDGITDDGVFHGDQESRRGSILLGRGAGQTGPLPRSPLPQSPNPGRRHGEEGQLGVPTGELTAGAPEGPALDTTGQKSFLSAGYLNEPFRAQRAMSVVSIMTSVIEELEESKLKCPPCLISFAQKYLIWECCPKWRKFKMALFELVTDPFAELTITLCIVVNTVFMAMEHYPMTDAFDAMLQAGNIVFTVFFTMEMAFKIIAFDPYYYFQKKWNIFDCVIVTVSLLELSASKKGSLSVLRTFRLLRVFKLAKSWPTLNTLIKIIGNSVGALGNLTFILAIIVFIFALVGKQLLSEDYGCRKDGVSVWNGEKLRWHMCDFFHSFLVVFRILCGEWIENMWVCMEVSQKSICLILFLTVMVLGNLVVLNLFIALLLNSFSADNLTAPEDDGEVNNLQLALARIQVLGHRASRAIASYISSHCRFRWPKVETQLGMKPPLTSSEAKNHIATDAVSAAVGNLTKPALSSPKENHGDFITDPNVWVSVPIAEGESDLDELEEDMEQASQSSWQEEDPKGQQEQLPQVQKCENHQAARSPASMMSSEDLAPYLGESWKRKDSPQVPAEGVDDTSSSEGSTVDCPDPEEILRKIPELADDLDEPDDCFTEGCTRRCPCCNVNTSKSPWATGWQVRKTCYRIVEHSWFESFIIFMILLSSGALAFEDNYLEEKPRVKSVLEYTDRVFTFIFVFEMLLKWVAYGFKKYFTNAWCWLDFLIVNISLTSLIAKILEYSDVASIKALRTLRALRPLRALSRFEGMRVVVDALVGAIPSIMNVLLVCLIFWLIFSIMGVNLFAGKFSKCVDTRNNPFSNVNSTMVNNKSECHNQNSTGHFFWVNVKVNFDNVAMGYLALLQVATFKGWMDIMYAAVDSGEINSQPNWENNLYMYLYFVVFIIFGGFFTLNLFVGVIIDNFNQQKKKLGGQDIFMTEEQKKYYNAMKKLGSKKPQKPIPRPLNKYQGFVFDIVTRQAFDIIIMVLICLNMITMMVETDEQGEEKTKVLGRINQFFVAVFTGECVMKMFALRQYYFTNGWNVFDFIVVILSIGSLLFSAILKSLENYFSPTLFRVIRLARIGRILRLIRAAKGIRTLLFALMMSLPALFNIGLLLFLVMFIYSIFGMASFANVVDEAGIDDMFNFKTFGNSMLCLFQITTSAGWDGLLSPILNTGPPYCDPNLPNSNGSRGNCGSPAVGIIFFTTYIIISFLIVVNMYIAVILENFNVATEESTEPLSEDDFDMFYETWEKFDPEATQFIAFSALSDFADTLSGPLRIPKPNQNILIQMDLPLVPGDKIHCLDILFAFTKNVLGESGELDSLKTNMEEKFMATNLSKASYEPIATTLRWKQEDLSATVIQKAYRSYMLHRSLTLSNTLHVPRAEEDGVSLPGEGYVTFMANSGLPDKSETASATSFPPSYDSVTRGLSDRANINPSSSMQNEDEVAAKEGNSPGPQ

[25] = tested on: rabbits; design: species or system New Zealand white rabbits; conditions: rabbit, in vivo, iv
[26] = tested on: Rhesus monkeys; conditions: rhesus monkey, in vivo
[27] = tested on: 2% red blood cell (RBC) suspension; assay type: cell-based, rabbit
[28] = tested on: TTX-sensitive sodium channel (TTX-S); conditions: cited from earlier work
[29] = Aspirin 100 mg/kg, Table 5 (im)
[30] = Aspirin 200 mg/kg, Table 5 (im)
[31] = Aspirin 300 mg/kg, Table 5 (im)
[32] = Aspirin 400 mg/kg, Table 5 (im)
[33] = quadriceps femoris, 1 mL im, 48 hours

10% bovine serum albumin: 10% bovine serum albumin solution, positive control in hypersensitivity test
animals with hypersensitive reaction (+) ([1]; (+) scratching nose, pilo-erection, uneasiness, sneezing, shortness of breath, mild cyanosis, animals/8): 4/8
animals with hypersensitive reaction (++) ([1]; (++) pilo-erection, manifest dyspnea, cyanosis, weakness of limbs, animals/8): 3/8
animals with hypersensitive reaction (+++) ([1]; (+++) Death, animals/8): 1/8
animals with hypersensitive reaction (−) ([1]; guinea pig, in vivo): 0/8

CC(=O)Oc1ccccc1C(=O)O [Aspirin]
Percentage of inhibition (%) ([2]; Aspirin 100 mg/kg, Table 4 (sc)): 18.9%
Average Writhing Incidents [2, 29]: 22.1
Inhibition Rate % [2, 29]: 21.7%
Percentage of inhibition (%) ([2]; Aspirin 200 mg/kg, Table 4 (sc)): 46.2%
Average Writhing Incidents [2, 30]: 14.3
Inhibition Rate % [2, 30]: 49.3%
Percentage of inhibition (%) ([2]; Aspirin 300 mg/kg, Table 4 (sc)): 69.4%
Average Writhing Incidents [2, 31]: 7.2
Inhibition Rate % [2, 31]: 74.4%
Percentage of inhibition (%) ([2]; Aspirin 400 mg/kg, Table 4 (sc)): 85.4%
Average Writhing Incidents [2, 32]: 2.7
Inhibition Rate % [2, 32]: 90.6%
ID50 and 95% Confidence Interval ([2]; Aspirin, Table 4 (sc)): 198.8 mg/kg
ID50 (95% Confidence Interval) ([2]; Aspirin, Table 5 (im)): 183.8 mg/kg
duration of analgesic effect ([3]; aspirin 400 mg/kg po): about 2 hours
onset of therapeutic effect ([3]; aspirin 400 mg/kg po): 20 min
time to peak effect after dosing ([3]; aspirin 400 mg/kg po): 30 min
IR, inhibition rate ([3]; Table 10, 10 min): 38.4
IR, inhibition rate ([3]; Table 10, 20 min): 41.1
AWI, average writhing incidence ([3]; Table 10, 30 min): 1.98
IR, inhibition rate ([3]; Table 10, 30 min): 89.2
AWI, average writhing incidence ([3]; Table 10, 40 min): 4.8
IR, inhibition rate ([3]; Table 10, 40 min): 74.1
AWI, average writhing incidence ([3]; Table 10, 70 min): 6.3
IR, inhibition rate ([3]; Table 10, 70 min): 65.9
IR, inhibition rate ([3]; Table 10, 100 min): 37.1
IR, inhibition rate ([3]; Table 10, 130 min): 36.2
AWI, average writhing incidence ([3]; Table 12 (NS 28.2 ± 14.3), 10 min after dosing): 19.5
IR, inhibition rate ([3]; Table 12, 10 min): 30.8
AWI, average writhing incidence ([3]; Table 12, 20 min): 17.7
IR, inhibition rate ([3]; Table 12, 20 min): 37.2
AWI, average writhing incidence ([3]; Table 12, 30 min): 5.5
IR, inhibition rate ([3]; Table 12, 30 min): 80.6
AWI, average writhing incidence ([3]; Table 12, 45 min): 8.2
IR, inhibition rate ([3]; Table 12, 45 min): 70.9
AWI, average writhing incidence ([3]; Table 12, 60 min): 10.2
IR, inhibition rate ([3]; Table 12, 60 min): 63.8
AWI, average writhing incidence ([3]; Table 12, 90 min): 14.4
IR, inhibition rate ([3]; Table 12, 90 min): 49.0
AWI, average writhing incidence ([3]; Table 12, 120 min): 19.3
IR, inhibition rate ([3]; Table 12, 120 min): 31.6
AWI, average writhing incidence ([3]; Table 12, 150 min): 22.8
IR, inhibition rate ([3]; Table 12, 150 min): 19.3

Cn1c(=O)c2c(ncn2C)n(C)c1=O [Caffeine]
Number of autonomic mobility (X ± SD) [4]: 777 ± 178 •••

O=C1c2cccc(O)c2C(=O)c2c(O)cccc21 [DAN]
Number of revertant Salmonella colonies, TA102 ([5]; DAN 100.0, +S9): 906 ± 69
Number of revertant Salmonella colonies, TA102 ([5]; DAN 100.0, −S9): 379 ± 99

CN(C)c1ccc(N=NS(=O)(=O)[O-])cc1.[Na+] [Dexon]
Number of revertant Salmonella colonies, TA102 ([5]; Dexon 50.0, −S9, control 270 ± 45): 858 ± 79
Number of revertant Salmonella colonies, TA98 [6]: 604 ± 86
Number of revertant Salmonella colonies, TA97 [7]: 1567 ± 315
Number of revertant Salmonella colonies, TA100 [8]: 562 ± 50

CN1C(=O)CN=C(c2ccccc2)c2cc(Cl)ccc21 [Diazepam]
Sleeping time (X ± SD) ([9]; Kunming): 146.2 ± 53. ||| min
Number of positively effected animals [10]: 8 ***
Number of autonomic mobility (X ± SD) [4]: 323 ± 203 |||

CO[C@@]12[C@H](COC(N)=O)C3=C(C(=O)C(C)=C(N)C3=O)N1C[C@@H]1N[C@@H]12 [MMC]
Chromosomal aberration rate (%) ([11]; 24 hours): 72%
Chromosomal aberration rate (%) ([11]; 48 hours): 99%

CCOC(=O)C1(c2ccccc2)CCN(C)CC1 [Meperidine]
ID50 and 95% Confidence Interval ([2]; mouse, in vivo, sc): 1.8 mg/kg

CN1CC[C@]23c4c5ccc(O)c4O[C@H]2[C@@H](O)C=C[C@H]3[C@H]1C5 [Morphine, morphine]
Score of body weight loss (Mean ± SD) [12]: 10.00 ± 2.60
Score of withdrawal symptoms (Mean ± SD) [12]: 7.38 ± 1.16
Percentage change in body weight, Overall Mean X ± SD [13]: −6.1
ID50 (95% CI) [14]: 2.74 mg/kg
ID50 (95% CI) ([14]; sc): 2.63 (2.32 ˜ 2.98) mg/kg
Latency time [15]: >20 min
Jumping Frequency (X ± SD) [16]: 19.7 ± 16.3
Jumping Incidence (%) [16]: 90.0%
Score of Withdrawal Symptoms ([17]; Guangxi): 61.0 ± 2.6
Body Weight Loss (%) [17]: 6.6 ± 1.7%

CC1(C)S[C@@H]2[C@H](NC(=O)Cc3ccccc3)C(=O)N2[C@H]1C(=O)[O-].[K+] [Penicillin G-K, penicillin G-K]
Grade for stimulation reaction, Left side, rabbit 1 [18, 33]: 4
Grade for stimulation reaction, Right side, rabbit 1 [18, 33]: 4
Grade for stimulation reaction, Right side, rabbit 2 [18, 33]: 4
Grade for stimulation reaction, Left side, rabbit 2 ([18]; rabbit, in vivo): 4
Sum of grades ([18]; two rabbits, both sides): 16

N=C1NC(O)C2C3OC4(O)OC(C(O)C2(N1)C4O)C3(O)CO (stereo not shown) [TTX, octahydro-12-(hydroxymethyl)-2-imino-5,9:7,10a-dimethano-10aH-(1,3)dioxocino(6,5-d)-pyrimidine-4,7,10,11,12-pentol]
effect on blood pressure, heart rate, electrocardiogram, respiratory rate and depth [19]: did not significantly affect
analgesic effect, times stronger than meperidine ([2]; mouse, in vivo): 670 times
IC50 [20]: 80 µM
Score of body weight loss (Mean ± SD) [12]: 0.00 ± 0.00
Score of withdrawal symptoms (Mean ± SD) ([12]; sc): 0.30 ± 0.90 and 0.20 ± 0.60
Percentage change in body weight, Overall Mean X ± SD [13]: 3.2
withdrawal symptom score (Mean ± SD) [13]: 0.0
animals with hypersensitive reaction (+) ([1]; guinea pig, in vivo): 0/8
animals with hypersensitive reaction (++) ([1]; guinea pig, in vivo): 0/8
animals with hypersensitive reaction (−) ([1]; guinea pig, in vivo): 8/8
analgesic effect, times stronger than morphine [14]: 2900 times
analgesic effect, times stronger than morphine ([14]; sc): 3200 times
Side Effect(s) [21]: Numbness; also recorded: Numbness,; also recorded: nausea, vomit
addiction or withdrawal [21]: No signs of addiction or withdrawal
blood pressure decrease [21]: 10-15 mm Hg
duration of analgesic effect / total pain relief [21]: 20 to 30 days
duration of numbness or tingling [21]: at most 30 min
onset of numbness or tingling in lips, tongue tip, fingers and toes [21]: 10 to 20 min
pain at the conclusion of treatment [21]: entirely eliminated
pain intensity of all subjects [21]: reduced to 0 in all but one patient who recorded a 1
quality of life interference [21]: 0
quality of life score [21]: 6
time to noticeable pain relief, some subjects [21]: 5 min
time to pain relief (various degrees), all subjects [21]: ≤ 30 min
time to recovery of blood pressure [21]: 40 to 50 min
time to take effect [21]: 5 to 30 min
embryotoxicity or teratogenic action [22]: No embryotoxicity or teratogenic action
duration of analgesic effect ([3]; mouse, in vivo, sc): about 5 hours
onset of therapeutic effect ([3]; mouse, in vivo, sc): 15 min
time to peak effect after dosing ([3]; mouse, in vivo, sc): 60 min
micronucleus rate [23]: 4.3 ‰
Sleeping time (X ± SD) ([9]; ip): 35.1 ± 26.2 ||| min and 36.3 ± 16.7 ||| min and 26.6 ± 22.5 ||| min
chromosomal aberration rates [11]: 0˜2%
Jumping Frequency (X ± SD) [16]: 0.70 ± 2.70 and 1.30 ± 3.90
Jumping Incidence (%) ([16]; sc): 10.0*# %
IC50 [24]: ~100 µM
vascular stimulation [25]: did not produce any pronounced vascular stimulation
decrease of AChE activity [26]: 41.2%
toxic symptoms [26]: evident toxic symptoms
in vitro haemolyzation [27]: did not induce in vitro haemolyzation
Body Weight Loss (%) [17]: 0.4 ± 0.8 %
Score of Withdrawal Symptoms [17]: 2.6 ± 4.6
toxic reaction on dose escalation [17]: significant toxic reaction (vomiting)
IC50 [28]: 0.001 to 0.02 µM

O=P1(N(CCCl)CCCl)NCCCO1 (stereo not shown) [cyclophosphamide]
teratogenic rate ([22]; female, Shanghai): 100%
Number of Micronucleus cells [23]: 279
